Measurements published in the supplement of paper PMC11451515.

Tested on: NOMO1
Assay: cell viability relative to DMSO control; higher = less cytotoxic
Conditions: 48 h
In short: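 Before seeding, each leukemia line was adapted for at least four passages in each medium. NOMO1 or SEM cells (500 cells/well) and P12-Ichikawa cells (1000 cells/well) went into 1536-well plates at 5 μl, then received library compounds in DMSO by pin dosing across 11 threefold concentrations, 47 μM to 0.79 nM. Readout was CellTiter-Glo One luminescence after 48 h at 37°C, and viability is given as a per-plate percentage of DMSO wells, with cell-free wells as background.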

[1] = HPLM + 10% dialyzed FBS, 0.000781 µM
[2] = HPLM + 10% dialyzed FBS, 0.00234 µM
[3] = HPLM + 10% dialyzed FBS, 0.00702 µM
[4] = HPLM + 10% dialyzed FBS, 0.0211 µM
[5] = HPLM + 10% dialyzed FBS, 0.0632 µM
[6] = HPLM + 10% dialyzed FBS, 0.19 µM
[7] = HPLM + 10% dialyzed FBS, 0.569 µM
[8] = HPLM + 10% dialyzed FBS, 1.71 µM
[9] = HPLM + 10% dialyzed FBS, 5.12 µM
[10] = HPLM + 10% dialyzed FBS, 15.4 µM
[11] = HPLM + 10% dialyzed FBS, 46.1 µM
[12] = RPMI 5 mM glucose + 10% FBS, 0.000781 µM
[13] = RPMI 5 mM glucose + 10% FBS, 0.00234 µM
[14] = RPMI 5 mM glucose + 10% FBS, 0.00702 µM
[15] = RPMI 5 mM glucose + 10% FBS, 0.0211 µM
[16] = RPMI 5 mM glucose + 10% FBS, 0.0632 µM
[17] = RPMI 5 mM glucose + 10% FBS, 0.19 µM
[18] = RPMI 5 mM glucose + 10% FBS, 0.569 µM
[19] = RPMI 5 mM glucose + 10% FBS, 1.71 µM
[20] = RPMI 5 mM glucose + 10% FBS, 5.12 µM
[21] = RPMI 5 mM glucose + 10% FBS, 15.4 µM
[22] = RPMI 5 mM glucose + 10% FBS, 46.1 µM
[23] = RPMI 5 mM glucose + 10% dialyzed FBS, 0.000781 µM
[24] = RPMI 5 mM glucose + 10% dialyzed FBS, 0.00234 µM
[25] = RPMI 5 mM glucose + 10% dialyzed FBS, 0.00702 µM
[26] = RPMI 5 mM glucose + 10% dialyzed FBS, 0.0211 µM
[27] = RPMI 5 mM glucose + 10% dialyzed FBS, 0.0632 µM
[28] = RPMI 5 mM glucose + 10% dialyzed FBS, 0.19 µM
[29] = RPMI 5 mM glucose + 10% dialyzed FBS, 0.569 µM
[30] = RPMI 5 mM glucose + 10% dialyzed FBS, 1.71 µM
[31] = RPMI 5 mM glucose + 10% dialyzed FBS, 5.12 µM
[32] = RPMI 5 mM glucose + 10% dialyzed FBS, 15.4 µM
[33] = RPMI 5 mM glucose + 10% dialyzed FBS, 46.1 µM

SMILES | cell viability [1] | cell viability [2] | cell viability [3] | cell viability [4] | cell viability [5] | cell viability [6] | cell viability [7] | cell viability [8] | cell viability [9] | cell viability [10] | cell viability [11] | cell viability [12] | cell viability [13] | cell viability [14] | cell viability [15] | cell viability [16] | cell viability [17] | cell viability [18] | cell viability [19] | cell viability [20] | cell viability [21] | cell viability [22] | cell viability [23] | cell viability [24] | cell viability [25] | cell viability [26] | cell viability [27] | cell viability [28] | cell viability [29] | cell viability [30] | cell viability [31] | cell viability [32] | cell viability [33]
COc1ccc(F)c(F)c1C(=O)c1cnc(NC2CCN([S+](C)(=O)[O-])CC2)nc1N | 106% | 135% | 123% | 117% | 119% | 124% | 118% | 93.6% | 45.6% | 7.59% | 3.32% | 104% | 118% | 103% | 102% | 109% | 109% | 100% | 98.9% | 46.3% | 15.1% | 3.38% | 105% | 101% | 102% | 106% | 107% | 102% | 83.8% | 90% | 54.1% | 15% | 2.57%
Cc1ccc([C@@H]2O[C@H](CO)[C@@H](O)[C@H](O)[C@H]2O)cc1Cc1ccc(-c2ccc(F)cc2)s1 | 122% | 138% | 122% | 129% | 127% | 129% | 119% | 127% | 142% | 122% | 85.3% |  |  |  |  |  |  |  |  |  |  |  |  |  |  |  |  |  |  |  |  |  | 
CN(C)c1nc(Cc2ccc(NC(=O)c3ccc(C(F)(F)F)cc3)cc2)nc(N(C)C)c1CC(=O)O | 120% | 101% | 107% | 94.5% | 119% | 112% | 103% | 96.2% | 107% | 108% | 91.1% | 93% | 88.6% | 87.1% | 82.7% | 99.4% | 89.4% | 95.7% | 96.6% | 86% | 91.8% | 85.5% | 96.1% | 95.2% | 96.2% | 94.1% | 91.6% | 97.8% | 98% | 99.8% | 96.9% | 86.9% | 86.8%
COCCn1c2c([n+](Cc3cnccn3)c1C)C(=O)c1ccccc1C2=O |  |  |  |  |  |  |  |  |  |  |  | 127% | 123% | 113% | 112% | 104% | 35.3% | 7.45% | 6.58% | 6.62% | 4.16% | 1.59% |  |  |  |  |  |  |  |  |  |  | 
CCc1ccc(OCc2ccccc2C(=O)Nc2ccc3nc(C)cc(N)c3c2)cc1 | 92.1% | 107% | 105% | 117% | 115% | 118% | 127% | 114% | 15.3% | 6.13% | 4.55% | 103% | 108% | 105% | 108% | 110% | 116% | 112% | 113% | 112% | 7.05% | 4.22% | 109% | 108% | 116% | 117% | 116% | 130% | 124% | 115% | 111% | 6.5% | 4.65%
CCn1nnc2c(N3CCOCC3)nc(-c3ccc(NC(=O)Nc4ccc(C(=O)N5CCN(C)CC5)cc4)cc3)nc21 | 117% | 109% | 94.2% | 67.2% | 63.4% | 53.9% | 101% | 65.7% | 60.7% | 51.4% | 48% | 90.8% | 107% | 94.1% | 85.6% | 76.5% | 67.7% | 105% | 79.9% | 72.4% | 69.9% | 61.2% | 89.3% | 97.2% | 89.7% | 75.3% | 60.9% | 60.2% | 89.8% | 62.5% | 53.5% | 55.9% | 56%
CO[C@@H](C(=O)N1Cc2[nH]nc(NC(=O)c3ccc(N4CCN(C)CC4)cc3)c2C1)c1ccccc1 | 88% | 93.2% | 102% | 94.2% | 72.2% | 62.2% | 58.6% | 53.3% | 54.1% | 66.8% | 71.7% | 80.4% | 79.4% | 79.7% | 83.2% | 81.5% | 64.4% | 51.5% | 50.9% | 55.8% | 53.4% | 56.3% | 83.7% | 87.2% | 88.5% | 88.7% | 71.9% | 52.5% | 59.3% | 47.4% | 48.9% | 55.3% | 54.3%
CC(=O)OC[C@@H]1O[C@H]([C@H](OC(C)=O)[C@@H]1OC(C)=O)N2\C=C/C(=O)NC2=O |  |  |  |  |  |  |  |  |  |  |  | 107% | 117% | 115% | 117% | 125% | 121% | 102% | 111% | 105% | 82.9% | 22.6% |  |  |  |  |  |  |  |  |  |  | 
CCCCc1ccc2[nH]c(NC(=O)OC)nc2c1 | 108% | 103% | 106% | 111% | 95.3% | 37.6% | 31.9% | 33.3% | 42.8% | 37.3% | 47.7% | 102% | 109% | 120% | 110% | 99.8% | 34.2% | 26.1% | 24.4% | 25.8% | 23.8% | 24.2% | 94.2% | 96.6% | 101% | 95.3% | 101% | 37.1% | 29.1% | 27.4% | 31.6% | 34.1% | 31.8%
